Values after ≈ are worked out from the molar mass of the structure shown. Like-named read-outs stand apart in the source and are kept apart here.
How the values were obtained:
[1] = test system: Pseudomonas aeruginosa MTCC 741; experiment: In vitro antibacterial activity (CLSI M07-A10 dilution), MIC; assay type: cell-based; settings: MTCC741
DNA gyrase from E. coli = target: T1, DNA gyrase from E. coli (Escherichia coli, UniProt P0AES4+P0AES6); experiment: Inhibitory activity on E. coli DNA gyrase (Inspiralis supercoiling assay); assay type: biochemical
T1 construct: purchased Inspiralis
T1 sequence (P0AES4 whole entry, one chain of several): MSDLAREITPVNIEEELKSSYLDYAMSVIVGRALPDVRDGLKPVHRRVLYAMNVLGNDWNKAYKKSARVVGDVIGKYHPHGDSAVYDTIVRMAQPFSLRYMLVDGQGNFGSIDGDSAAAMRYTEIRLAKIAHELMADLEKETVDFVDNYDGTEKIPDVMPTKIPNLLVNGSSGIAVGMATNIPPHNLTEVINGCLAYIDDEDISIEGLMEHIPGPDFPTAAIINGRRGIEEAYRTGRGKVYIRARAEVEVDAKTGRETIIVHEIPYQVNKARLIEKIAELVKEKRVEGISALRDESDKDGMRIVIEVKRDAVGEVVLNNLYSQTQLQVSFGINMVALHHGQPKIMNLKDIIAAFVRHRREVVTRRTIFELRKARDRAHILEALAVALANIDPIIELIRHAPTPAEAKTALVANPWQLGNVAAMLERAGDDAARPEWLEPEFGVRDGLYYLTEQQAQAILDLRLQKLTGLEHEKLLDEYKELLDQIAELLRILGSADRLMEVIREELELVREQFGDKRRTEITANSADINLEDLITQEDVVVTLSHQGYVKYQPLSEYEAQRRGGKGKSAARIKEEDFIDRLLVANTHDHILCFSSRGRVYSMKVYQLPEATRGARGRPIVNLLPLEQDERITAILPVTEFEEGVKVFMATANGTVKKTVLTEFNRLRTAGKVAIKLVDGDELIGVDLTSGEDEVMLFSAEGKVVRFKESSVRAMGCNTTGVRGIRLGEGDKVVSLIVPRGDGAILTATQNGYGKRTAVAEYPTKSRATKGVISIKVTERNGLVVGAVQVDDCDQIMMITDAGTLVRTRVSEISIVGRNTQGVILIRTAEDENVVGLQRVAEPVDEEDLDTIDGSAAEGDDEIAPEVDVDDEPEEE
Procedure: Inhibitory potencies were investigated utilizing the Inspiralis assay on streptavidin-coated 96-well microtiter plates. First, the plates were rehydrated with buffer (20 mM Tris-HCl with pH 7.6, 0.01% w/v BSA, 0.05% v/v Tween 20, 137 mM NaCl) and the biotinylated oligonucleotide was then immobilized. After washing off the unbound oligonucleotide, the enzyme test was performed. […] Reaction solutions were incubated at 37° C. for 30 min. After that, the TF buffer (50 mM NaOAc with pH 5.0, 50 mM NaCl and 50 mM MgCl2) was added to terminate the enzymatic reaction. After additional incubation for 30 min at rt, during which biotinoligonucleotide-plasmid triplex was formed, the unbound plasmid was washed off using TF buffer and SybrGOLD in T10 buffer (10 mM Tris HCl with pH 8.0 and 1 mM EDTA) was added. The fluorescence was measured with a microplate reader (BioTek Synergy H4, excitation: 485 nm, emission: 535 nm). […] GraphPad Prism software was used to calculate the IC50 values. The result is given as the average value of three independent measurements.

[2] = test system: Staphylococcus epidermidis; experiment: In vitro antibacterial activity (CLSI M07-A10 dilution), MIC; assay type: cell-based
[3] = test system: Enterococcus faecium ATCC 51559 (VRE resistant); experiment: as above; assay type: cell-based
[4] = test system: Escherichia coli MTCC 443; experiment: as above; assay type: cell-based; settings: MTCC443
[5] = test system: Klebsiella pneumonia MTCC 618; experiment: as above; assay type: cell-based; settings: Klebsiella pneumoniae, MTCC618
[6] = test system: Enterococcus faecium ATCC 35667; experiment: as above; assay type: cell-based; settings: ATCC35667
[7] = test system: Mycobacterium tuberculosis H37Rv strain; experiment: Anti-tubercular alamar blue microplate MIC assay; assay type: cell-based; settings: 168 h, M. tuberculosis H37Rv, 7 days at 37° C., read-out: anti-mycobacterial activity (MIC)
[8] = test system: Staphylococcus aureus ATCC 29213; experiment: In vitro antibacterial activity (CLSI M07-A10 dilution), MIC; assay type: cell-based; settings: ATCC29213
[9] = test system: Staphylococcus aureus ATCC BAA-1556 (MERSA resistant); experiment: as above; assay type: cell-based; settings: ATCCBAA1556
[10] = test system: Bacillus subtilis MTCC 441; experiment: as above; assay type: cell-based; settings: MTCC441

## CCC(=O)Nc1ccc2cc(-c3cc(C(=O)O)ccc3CN(C)C3CCCCC3)c(=O)oc2c1 [Compound 12, 4-((cyclohexyl(methyl)amino)methyl)-3-(2-oxo-7-propionamido-2H-chromen-3-yl)benzoic acid]
[1]
  MIC: 1 µg/mL (≈ 2.16 µM)
DNA gyrase from E. coli
  IC50: 78 nM
[2]
  MIC: 1 µg/mL (≈ 2.16 µM)
[3]
  MIC: 1 µg/mL (≈ 2.16 µM)
[4]
  MIC: 4 µg/mL (≈ 8.65 µM)
[5]; Klebsiella pneumonia MTCC 618, read-out: MIC
  MIC: 1 µg/mL (≈ 2.16 µM)
[6]
  MIC: 0.75 µg/mL (≈ 1.62 µM)
[7]
  MIC: 8 µg/mL (≈ 17.3 µM)
[8]
  MIC: 2 µg/mL (≈ 4.32 µM)
[9]
  MIC: 4 µg/mL (≈ 8.65 µM)
[10]
  MIC: 0.75 µg/mL (≈ 1.62 µM)

## CN[C@H](CC(C)C)C(=O)N[C@H]1C(=O)N[C@@H](CC(N)=O)C(=O)N[C@H]2C(=O)N[C@H]3C(=O)N[C@H](C(=O)N[C@H](C(=O)O)c4cc(O)cc(O)c4-c4cc3ccc4O)[C@H](O)c3ccc(c(Cl)c3)Oc3cc2cc(c3O[C@@H]2O[C@H](CO)[C@@H](O)[C@H](O)[C@H]2O[C@H]2C[C@](C)(N)[C@H](O)[C@H](C)O2)Oc2ccc(cc2Cl)[C@H]1O [Vancomycin, reference compound]
[5]
  MIC: > 128 µg/mL
